Laboratory results: the supplement of paper PMC11061612

How the values were obtained:
Assay in all cases: combination Emax (second highest fraction inhibited in the dose matrix, 72 h); higher = more inhibition; extreme values may be limits of the assay
A2058 (Melanoma) = system: A2058 (Melanoma)
Procedure, shortened: (§1)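 After 24 hours at 37°C and 5% CO2 in 1536-well plates, cells in DMEM/F12 or RPMI plus 10% FBS received two-drug dose matrices for 72 hours. Viability came from CellTiter-Glo 2.0 luminescence and was scaled as inhibition, anchored at 0 by vehicle wells and at 1 by blank wells. Combination Emax is taken as the second-highest inhibition in the matrix, and Bliss excess as the observed combination effect less EA + EB − EA·EB, with EA and EB the single-agent effects.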

[1] = system: FADU (Head and Neck Carcinoma)
Procedure, shortened: as §1

GB-1 (Glioblastoma) = system: GB-1 (Glioblastoma)
Procedure, shortened: as §1

[2] = system: GP5d (Colorectal Carcinoma)
Procedure, shortened: as §1

[3] = system: HCT-15 (Colorectal Carcinoma)
Procedure, shortened: as §1

[4] = system: HSC-39 (Gastric Carcinoma)
Procedure, shortened: as §1

[5] = system: L-1236 (Hodgkin's Lymphoma)
Procedure, shortened: as §1

[6] = system: MKN45 (Gastric Carcinoma)
Procedure, shortened: as §1

[7] = system: NCI-H446 (Small Cell Lung Carcinoma)
Procedure, shortened: as §1

[8] = system: OPM-2 (Plasma Cell Myeloma)
Procedure, shortened: as §1

[9] = system: OVMIU (Ovarian Carcinoma)
Procedure, shortened: as §1

[10] = system: PC-3_[JPC-3] (Lung Adenocarcinoma)
Procedure, shortened: as §1

[11] = system: PSN1 (Pancreatic Carcinoma)
Procedure, shortened: as §1

[12] = system: RCM-1 (Colorectal Carcinoma)
Procedure, shortened: as §1

[13] = system: RERF-GC-1B (Gastric Carcinoma)
Procedure, shortened: as §1

[14] = system: RKN (Other Solid Carcinomas)
Procedure, shortened: as §1

[15] = system: SHP-77 (Small Cell Lung Carcinoma)
Procedure, shortened: as §1

[16] = system: SU-DHL-10 (B-Cell Non-Hodgkin's Lymphoma)
Procedure, shortened: as §1

[17] = system: TE-8 (Esophageal Squamous Cell Carcinoma)
Procedure, shortened: as §1

[18] = system: VAL (B-Cell Non-Hodgkin's Lymphoma)
Procedure, shortened: as §1

| Structure (SMILES) | combination Emax (A2058 (Melanoma)) | combination Emax [1] | combination Emax (GB-1 (Glioblastoma)) | combination Emax [2] | combination Emax [3] | combination Emax [4] | combination Emax [5] | combination Emax [6] | combination Emax [7] | combination Emax [8] | combination Emax [9] | combination Emax [10] | combination Emax [11] | combination Emax [12] | combination Emax [13] | combination Emax [14] | combination Emax [15] | combination Emax [16] | combination Emax [17] | combination Emax [18] |
| --- | --- | --- | --- | --- | --- | --- | --- | --- | --- | --- | --- | --- | --- | --- | --- | --- | --- | --- | --- | --- |
| Cc1c2c(nn1C)CSCc1cc(n(C)n1)CSc1cc(c3ccccc3c1)OCCCc1c(C(=O)O)n(C)c3c-2c(Cl)ccc13 [AZD5991] + C1CN(CCC1(C(=O)N[C@@H](CCO)C2=CC=C(C=C2)Cl)N)C3=NC=NC4=C3C=CN4 [Capivasertib] (first compound max 1 µM, 7x7, partner max 3 µM) | 0.908 | 1 | 0.195 | 0.733 | 0.209 | 1 | 0.42 | 0.467 | 0.838 | 1 | 0.353 | 0.203 | 0.241 | 0.307 | 0.989 | 0.173 | 0.263 | 1 | 0.523 | 0.811 |
| CN(CCO)CC[C@H](CSc1ccccc1)Nc1ccc(S(=O)(=O)NC(=O)c2ccc(N3CCC([C@@H](O)c4ccccc4-c4ccc(Cl)cc4)CC3)cc2)cc1S(=O)(=O)C(F)(F)F [AZD4320] + Cn1cnc2c(F)c(Nc3ccc(Br)cc3Cl)c(C(=O)NOCCO)cc21 [Selumetinib] (first compound max 1 µM, 7x7, partner max 3 µM) | 0.76 | 0.832 | 0.519 | 0.9 | 0.284 | 0.57 | 0.999 | 0.511 | 0.758 | 0.556 | 0.739 | 0.571 | 0.664 | 0.785 | 0.716 | 0.326 | 0.613 | 0.617 | 0.502 | 1 |
| NC1(C(=O)N[C@@H](CCO)c2ccc(Cl)cc2)CCN(c2ncnc3[nH]ccc23)CC1 [Capivasertib] + CCN(CCO)CCCOc1ccc2c(Nc3cc(CC(=O)Nc4cccc(F)c4)[nH]n3)ncnc2c1 [AZD2811] (first compound max 10 µM, 7x7, partner max 1 µM) | 0.798 | 0.36 | 0.342 | 0.718 | 0.394 | 0.948 | 0.792 | 0.486 | 0.958 | 0.981 | 0.381 | 0.344 | 0.371 | 0.197 | 0.542 | 0.254 | 0.271 | 1 | 0.6 | 0.761 |
| Cc1c2c(nn1C)CSCc1cc(n(C)n1)CSc1cc(c3ccccc3c1)OCCCc1c(C(=O)O)n(C)c3c-2c(Cl)ccc13 [AZD5991] + C[C@@H]1COCCN1C2=NC(=NC(=C2)C3(CC3)[S@](=N)(=O)C)C4=C5C=CNC5=NC=C4 [AZD6738] (first compound max 1 µM, 7x7, partner max 10 µM) | 0.925 | 0.985 | 0.489 | 0.984 | 0.733 | 1 | 0.74 | 0.807 | 0.948 | 1 | 0.483 | 0.37 | 0.488 | 0.801 | 1 | 0.215 | 0.594 | 1 | 0.751 | 0.933 |
| Cn1cnc2c(F)c(Nc3ccc(Br)cc3Cl)c(C(=O)NOCCO)cc21 [Selumetinib] + CC(C)n1c(=O)n(C)c2cnc3cc(F)c(-c4ccc(OCCCN5CCCCC5)nc4)cc3c21 [AZD1390] (first compound max 10 µM, 7x7, partner max 0.3 µM) | 0.426 | 0.271 | 0.0241 | 0.683 | 0.155 | 0.201 | 0.301 | 0.61 | 0.262 | 0.192 | 0.402 | 0.159 | 0.738 | 0.616 | 0.368 | 0.379 | 0.15 | 0.0401 | 0.546 | 0.0806 |
| CN(CCO)CC[C@H](CSc1ccccc1)Nc1ccc(S(=O)(=O)NC(=O)c2ccc(N3CCC([C@@H](O)c4ccccc4-c4ccc(Cl)cc4)CC3)cc2)cc1S(=O)(=O)C(F)(F)F [AZD4320] + Cc1cc2ncnn2cc1Nc1ncc2c(n1)n(C1CCOCC1)c(=O)n2C [AZD7648] (first compound max 1 µM, 7x7, partner max 10 µM) | 0.0867 | 0.12 | 0.17 | 0.295 | 0.135 | 0.367 | 0.958 | 0.352 | 0.699 | 0.71 | 0.847 | 0.243 | 0.315 | 0.351 | 0.344 | 0.135 | 0.491 | 0.474 | 0.193 | 1 |
| C[C@@H](c1ccc2nccn2c1)n1nnc2ncc(-c3cnn(C)c3)nc21 [Savolitinib] + Cc1c2c(nn1C)CSCc1cc(n(C)n1)CSc1cc(c3ccccc3c1)OCCCc1c(C(=O)O)n(C)c3c-2c(Cl)ccc13 [AZD5991] (first compound max 1 µM, 7x7, partner max 1 µM) | 0.36 | 0.546 | 0.117 | 0.861 | 0.152 | 0.99 | 0.668 | 0.839 | 0.597 | 1 | 0.114 | 0.284 | 0.174 | 0.114 | 0.788 | 0.117 | 0.34 | 1 | 0.323 | 0.564 |
| COc1cccc(OCCCN)c1-c1cc(Nc2cnc(C#N)cn2)n[nH]1 [Prexasertib] + CCc1c2c(nc3ccc(O)cc13)-c1cc3c(c(=O)n1C2)COC(=O)[C@]3(O)CC [SN-38] (first compound max 1 µM, 7x7, partner max 0.3 µM) | 0.924 | 0.998 | 0.836 | 0.949 | 0.993 | 1 | 0.883 | 0.853 | 1 | 0.972 | 0.571 | 0.802 | 0.931 | 0.887 | 0.994 | 0.966 | 0.988 | 1 | 0.972 | 0.961 |
| COc1nnc2ccc(N3CCC(c4ccc(OCCN5CCN(C)C(=O)[C@H]5C)cc4)CC3)nn12 [AZD5153] + Cc1c2c(nn1C)CSCc1cc(n(C)n1)CSc1cc(c3ccccc3c1)OCCCc1c(C(=O)O)n(C)c3c-2c(Cl)ccc13 [AZD5991] (first compound max 1 µM, 7x7, partner max 1 µM) | 0.975 | 0.975 | 0.288 | 0.961 | 0.75 | 1 | 1 | 0.497 | 0.998 | 1 | 0.813 | 0.39 | 0.506 | 0.619 | 0.985 | 0.495 | 0.544 | 1 | 0.705 | 0.854 |
| CN(C)CCCOc1ccc(-c2ccc3ncc4c(c3c2)n(C2CCOCC2)c(=O)n4C)cn1 [AZD0156] + C[C@@H]1COCCN1C2=NC(=NC(=C2)C3(CC3)[S@](=N)(=O)C)C4=C5C=CNC5=NC=C4 [AZD6738] (first compound max 1 µM, 7x7, partner max 10 µM) | 0.225 | 0.758 | 0.392 | 0.883 | 0.915 | 1 | 0.634 | 0.791 | 0.779 | 0.776 | 0.396 | 0.329 | 0.504 | 0.864 | 0.491 | 0.206 | 0.665 | 0.979 | 0.817 | 0.911 |
| CN(C)CCCOc1ccc(-c2ccc3ncc4c(c3c2)n(C2CCOCC2)c(=O)n4C)cn1 [AZD0156] + CCN(CCO)CCCOc1ccc2c(Nc3cc(CC(=O)Nc4cccc(F)c4)[nH]n3)ncnc2c1 [AZD2811] (first compound max 1 µM, 7x7, partner max 1 µM) | 0.0924 | 0.228 | 0.0845 | 0.456 | 0.317 | 0.935 | 0.215 | 0.342 | 0.838 | 0.436 | 0.144 | 0.101 | 0.362 | 0.161 | 0.423 | 0.132 | 0.237 | 0.835 | 0.196 | 0.801 |
| Cc1c2c(nn1C)CSCc1cc(n(C)n1)CSc1cc(c3ccccc3c1)OCCCc1c(C(=O)O)n(C)c3c-2c(Cl)ccc13 [AZD5991] + CCN(CCO)CCCOc1ccc2c(Nc3cc(CC(=O)Nc4cccc(F)c4)[nH]n3)ncnc2c1 [AZD2811] (first compound max 1 µM, 7x7, partner max 1 µM) | 0.919 | 0.986 | 0.264 | 0.956 | 0.263 | 1 | 0.491 | 0.408 | 0.926 | 1 | 0.283 | 0.274 | 0.319 | 0.347 | 0.998 | 0.185 | 0.289 | 1 | 0.529 | 0.909 |
| CN(C)CCCOc1ccc(-c2ccc3ncc4c(c3c2)n(C2CCOCC2)c(=O)n4C)cn1 [AZD0156] + C=CCn1c(=O)c2cnc(Nc3ccc(N4CCN(C)CC4)cc3)nc2n1-c1cccc(C(C)(C)O)n1 [AZD1775] (first compound max 1 µM, partner max 1 µM) | 0.121 | 0.617 | 0.263 | 0.664 | 0.726 | 0.946 | 0.755 | 0.701 | 0.801 | 0.805 | 0.519 | 0.393 | 0.462 | 0.518 | 0.772 | 0.263 | 0.419 | 0.936 | 0.783 | 0.846 |
